From patent publication US9624279B2, “Method for producing insoluble aggregate of neurodegenerative-disease-related protein” (TOKYO METROPOLITAN INSTITUTE OF MEDICAL SCIENCE, priority 2011, dated 2017)

Tested on: HA-TDP expressing cells
Assay: Suppression of insoluble TDP aggregate formation by candidate compounds (Western blot with anti-409/410 antibody, densitometer)
Format: cell-based, human
Details: 20 μM, ppt fraction after three days, compared with DMSO control as 100%; for suppressing effect against aggregate formation: added 6 hours after introduction of insoluble fraction from the brain of patient
Description: Two transfectants of (1) SH-SY5Y cells expressing human α-synuclein (hereinafter referred to as “αS expressing cells” for transfectants and “αS” for the human α-synuclein, respectively) and (2) SH-SY5Y cells expressing HA-tagged TAR DNA binding protein (hereinafter referred to as “HA-TDP expressing cells” for the SH-SY5Y cells and an “HA-TDP” HA-tagged TAR DNA binding protein, respectively) were prepared. In brief, a construct in which a polynucleotide encoding αS or HA-TDP was inserted into pcDNA3 vector were prepared (Ueda. K et al., Proc. Natl. Acad. Sci. U.S.A. 90: 11282 (1993), Ou. S H et al., J Virol. 3584: 394 (1995)). Mixture of the construct (1 μg), X-tremeGENE 9 DNA transfection reagent (Roche Diagnostics K.K.) (3 μL) and the OptiMEM (100 μL) was added to 30% to 50% confluent of the SH-SY5Y cells and incubated over night, then used in the following step of introduction of insoluble fraction.
An amount of sample for introduction per one well of the 6-well plate was added to the cell culture medium of one well, then the cultured cells was incubated for 6 hours. After the incubation, the medium was replaced with a flesh cell culture medium (2 mL) and the cultured cells were incubated for 3 days. Then, the cultured cells were used to perform the analysis by Western blotting and immunocytochemistry. If the cultured cells were not used immediately, the cultured cells were stored at −20° C.
The precipitate obtained in the preparation of TX fraction was suspended in a cell lysis buffer containing 1% N-sodium lauroyl sarcosinate, and incubated at 37° C. for 30 min. After ultrasonication treatment using VP-5S type device (Titech Corporation), the supernatant and precipitate were separated by ultracentrifugation (290,000×g, 20 min, 4° C.), the supernatant was used as Tris buffer soluble fraction containing N-sodium lauroyl sarcosinate (hereinafter referred to as “Sar fraction”). And also, the precipitate was used as insoluble fraction (hereinafter referred to as “ppt fraction”).
TS, TX, Sar and ppt fractions were used in the Western blotting by standard method well known to those skilled in the art. In brief, each fraction was separated by electrophoresis with 13.5% SDS-polyacrylamide gel, respectively. The separated proteins were transferred to a PVDF membrane, reacted with the following primary and secondary antibodies, and detected with an ECL Plus Western Blotting Detection System (GE Healthcare Japan Corporation) and an ImageQuant™ LAS 4000 mini (GE Healthcare Japan Corporation).
The harvest of samples, preparation of insoluble fractions from the brain samples, preparation of sample for introduction including the insoluble fractions, cell culturing, preparation of transfectants, introduction of insoluble fractions into the cultured cells and Western blotting were performed in accordance with the procedures similar to those in the example 3. In this example, the candidate compounds of therapeutic agent of neurodegenerative disease were added at final concentration of 20 μM at 6 hours after introduction of insoluble fraction originated from the brain of patient into HA-TDP expressing cells. […] In three days after the introduction of insoluble fraction from the brain of patient, the ppt fraction of HA-TDP expressing cells was recovered and used in Western blotting, and the amounts of the insoluble fractions were quantified with a densitometer. […]

In the case of `O=C(c1cc(O)c(O)c(O)c1)c1ccc(O)c(O)c1O` [exifone], the “suppressing effect against aggregate formation” value (shortened to “suppressing effect”) is reported as “did not have a suppressing effect”.
For `O=C(O[C@@H]1Cc2c(O)cc(O)cc2O[C@@H]1c1ccc(O)c(O)c1)c1cc(O)c(O)c(O)c1` [epicatechin gallate, (−)-epicatechin gallate], the “suppressing effect” value was “had the suppressing effect”.
In the case of `O=c1c(O)c(-c2ccc(O)c(O)c2)oc2c(O)c(O)cc(O)c12` [gossypetin], the “suppressing effect” value is reported as “had the suppressing effect” and the aggregate formation suppressed is reported as “approximately 40%”.
In the case of `O=c1c(O)c(-c2cc(O)c(O)c(O)c2)oc2cc(O)cc(O)c12` [myricetin], the “suppressing effect” value is reported as “had the suppressing effect”.
